Data: US8741951B2, “Non-steroidal compounds for androgen receptor modulation” (CNR—Consiglio Nazionale delle Ricerche, priority 2009, dated 2014)
Entries after “also recorded” stand apart in the source; their conditions may differ.

Key:
DU145 cell line = test: SRB cytotoxicity, DU145; format: cell-based, human; conditions: DU145 (no AR), 144 h, up to 20 μM
Method: FIGS. 16-25: cytotoxic effect of compounds (R)-XXIII-2, (R)-XXIII-3, (R)-XXIII-4, (R)-XXIII-5, (R)-XXIII-6, (R)-XXIII-7, (R)-XXIII-8, (R)-XXIII-9, (R)-XXIII-10, (R)-XXIV-9 on PC-3 and DU-145 cell lines at different concentration (0.02, 0.2, 2, 20 μM) after 144 h exposure. On the x-axis is reported the concentration, while on the y-axis is reported the inhibition of the net growth (% net growth).
Sulforhodamine B (SRB) assay was used according to the method by Skehan et al. (JNCI, 1990). Briefly, cells were collected by trypsinization, counted and plated at a density of 5,000 cells/well in 96-well flat-bottomed microtiter plates (100 μl of cell suspension/well). In the chemosensitivity assay, experiments were run in octuplicate, and each experiment was repeated three times. The optical density (OD) of cells was determined at a wavelength of 490 nm by a colorimetric plate reader.
If ODtreated is above ODzero, treatment has induced a cytostatic effect, whereas if ODtreated is below ODzero, cell killing has occurred. The ODzero depicts the cell number at the moment of drug addition, the ODcontrol reflects the cell number in untreated wells and the ODtreated reflects the cell number in treated wells on the day of the assay.

[1] = molecular target: T1, human androgen receptor (hAR) (Homo sapiens, UniProt P10275); test: hAR transactivation assay (ARE-luc) in Cos-7 cells; format: cell-based
T1 construct: expressed in transfected cells; host or cells: Cos-7
T1 sequence (P10275 1-920): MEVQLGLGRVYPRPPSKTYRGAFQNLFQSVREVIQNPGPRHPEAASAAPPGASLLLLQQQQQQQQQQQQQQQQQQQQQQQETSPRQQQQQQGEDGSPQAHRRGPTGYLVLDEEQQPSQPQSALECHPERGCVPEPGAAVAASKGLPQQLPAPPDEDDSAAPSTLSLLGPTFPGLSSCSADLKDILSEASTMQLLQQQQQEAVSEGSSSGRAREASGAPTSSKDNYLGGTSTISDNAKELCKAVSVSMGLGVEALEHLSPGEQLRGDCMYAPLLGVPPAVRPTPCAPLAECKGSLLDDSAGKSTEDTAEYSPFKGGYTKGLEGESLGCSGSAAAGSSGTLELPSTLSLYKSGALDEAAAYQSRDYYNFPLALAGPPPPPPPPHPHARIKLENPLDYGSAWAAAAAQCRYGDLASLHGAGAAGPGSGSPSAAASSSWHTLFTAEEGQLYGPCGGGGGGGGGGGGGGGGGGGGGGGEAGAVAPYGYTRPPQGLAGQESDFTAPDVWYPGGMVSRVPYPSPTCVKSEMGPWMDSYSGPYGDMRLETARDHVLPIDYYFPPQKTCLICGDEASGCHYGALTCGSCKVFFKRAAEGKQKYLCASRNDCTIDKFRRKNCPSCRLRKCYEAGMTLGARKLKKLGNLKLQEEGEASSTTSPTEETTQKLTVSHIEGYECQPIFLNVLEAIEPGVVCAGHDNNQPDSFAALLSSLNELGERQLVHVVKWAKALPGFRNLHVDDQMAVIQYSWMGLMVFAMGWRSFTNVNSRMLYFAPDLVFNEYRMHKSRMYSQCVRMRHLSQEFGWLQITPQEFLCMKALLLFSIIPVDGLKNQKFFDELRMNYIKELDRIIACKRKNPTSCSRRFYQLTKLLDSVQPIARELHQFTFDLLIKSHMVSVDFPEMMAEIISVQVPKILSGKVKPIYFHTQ
Excerpt: The cDNA coding hAR was cloned into the pSG5 expression vector as reported previously [Chang, C. S., J. Kokontis, and S. T. Liao 1988 Molecular cloning of human and rat complementary DNA encoding androgen receptors Science 240:324-326].
The 3416 construct (ARE-Luc), containing four copies of the wild-type slp-HRE2 (5′-TGGTCAgccAGTTCT-3′) was cloned in the NheI site in pTK-TATA-Luc [Verrijdt, G., E. Schoenmakers, A. Haelens, B. Peeters, G. Verhoeven, W. Rombauts, and F. Claessens 2000 Change of specificity mutations in androgen selective enhancers J. Biol. Chem. 275:12298-12305].
For androgen-stimulated transcriptional analysis, 32×10^4 Cos-7 cells were plated in phenol red-free DMEM containing 5% charcoal-stripped serum. After 48 h, the cells were transfected by Superfect (Qiagen) with 0.3 μg of 3416-pTK-TATA-Luc construct, together with 1.5 μg of either pSG5-empty plasmid or pSG5-hAR expressing plasmid. […] When indicated, the synthetic compounds were added alone to the cell medium. […] It was dissolved in 0.001% (final concentration) ethanol. Control cells were treated with the vehicle alone. Lysates were prepared and the luciferase activity was measured using a luciferase assay system (Promega). The results were corrected using CH110-expressed beta-galactosidase activity (Amersham Biosciences) and luciferase activity was expressed as fold induction. Results were obtained from two or three different experiments, each performed in duplicate. Mean and SEM are shown.

[2] = tested on: human CW22-RV1 prostate carcinoma xenograft; test: In vivo antitumor activity, CW22-RV1 xenograft s.c. in nude mice
Method: CW-22Rv1, a human prostate carcinoma epithelial cell line were purchased from ATCC.
In vivo antitumor activity experiments with the compound (R)-XXIII-6 were carried out using female athymic Swiss nude mice 8 to 10 weeks of age (Charles River, Calco, Italy). Mice were maintained in laminar flow rooms, keeping temperature and humidity constant. Mice had free access to food and water. Experiments were approved by the Ethics Committee for Animal Experimentation of the Istituto Nazionale Tumori (Milan, Italy).
Human CW22-RV1 cells, a human prostate carcinoma epithelial cell line, derived from a xenograft that was serially propagated in mice after castration-induced regression and relapse of the parental, androgen-dependent CWR22 xenograft, were used for in vivo experiments. The prostate carcinoma cell line were inoculated by subcutaneous injection (s.c.) in the right flank of nude mice, at day 0. Treatment started at day 3 when tumor weights were around 60 mg.
The efficacy of the drug treatment was assessed as: (a) TWI % in treated versus control mice, calculated as TWI=100−(mean TW treated/mean TW control×100).
The toxicity of the drug treatment was assessed as: (a) BWL calculated as BWL=100−(mean BWdayx/mean BWday1×100), where day 1 is the first day of treatment and day x is any day after (mice were weighed twice/week throughout the experimental frame and in the table 3 the maximum BWL value was reported); and (b) lethal toxicity, i.e., any death in treated groups occurring before any control death (mice were inspected daily for mortality).

Compound: N#Cc1ccc(NC(=O)[C@](O)(Cc2cccs2)CS(=O)(=O)c2ccc(F)cc2)cc1C(F)(F)F [(R)-XXIII-6]
- cytotoxic activity, in words (DU145 cell line): negligible cytotoxic activity
- inhibition of R1881-induced AR transcriptional activation (antagonistic activity), in words ([1]; compound 10 μM with 10 nM R1881): antagonistic activity
- agonistic activity on AR transcription, in words ([1]; compound alone, 10 nM to 1 μM or 10 μM): does not seem to display agonistic activity
- Tox/Tot (deaths in treated mice before any control death) ([2]; 100 mg/Kg p.o.): 0/6
- day of Max TWI % (day after tumor inoculum) ([2]; 100 mg/Kg p.o.): 23 days
- Max TWI % ([2]; 100 mg/Kg p.o., (qdx5/wx2w) × 2 cycles): 45%
- Max BWL (maximum body weight loss in percentage) ([2]; 100 mg/Kg p.o., during drug treatment): 2%
- tolerability, in words ([2]; 100 mg/kg p.o.): generally well tolerated, with no signs of acute or delayed toxicity
- antitumor activity / tumor weight, in words ([2]; 100 mg/kg p.o., versus untreated mice): significant reduction in tumor weight; also recorded: effective in slowing tumor growth
